What was measured:
[1] = test system: Glo-Response ARE-luc2P HEK293 cell line; experiment: ARE luciferase reporter cell-based assay; settings: Homo sapiens, HEK293, 24 h, average of results obtained;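 also: luciferase signal tracks Nrf2 activation of the ARE once compounds disrupt KEAP1-Nrf2 binding, read with One-Glo reagent, DMSO serving as low control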
[2] = biological target: Kelch domain of human KEAP1 (321-624 aa) (Homo sapiens (Human), UniProt Q14145); experiment: KEAP1 KELCH ThermoFluor binding assay; settings: KEAP Kelch […], 1,8-ANS, pH 7.0, average of results obtained, read-out: Tf Kd;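 also: Ligand-induced melting temperature shift of E. coli-expressed KEAP1 Kelch protein, Kd estimated from concentration-response curves of ΔTm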
Kelch domain of human KEAP1 (321-624 aa), sequence (Q14145 321-624): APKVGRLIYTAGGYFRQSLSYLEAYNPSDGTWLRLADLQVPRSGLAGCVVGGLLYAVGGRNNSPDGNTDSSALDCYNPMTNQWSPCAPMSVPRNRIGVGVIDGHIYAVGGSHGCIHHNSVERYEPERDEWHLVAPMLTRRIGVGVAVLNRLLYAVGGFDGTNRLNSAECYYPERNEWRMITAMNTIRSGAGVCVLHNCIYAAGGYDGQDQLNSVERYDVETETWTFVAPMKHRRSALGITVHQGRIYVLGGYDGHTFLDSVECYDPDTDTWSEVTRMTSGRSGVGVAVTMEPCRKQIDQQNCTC

| Kd [2] | Structure (SMILES) | EC50 [1] |
| --- | --- | --- |
| 820 nM | Cc1ccc([C@H](c2ccn3c(C(F)(F)F)nnc3c2C)C(C)(C)C(=O)O)cc1CN1CC2(CCOCC2)Oc2nc(OCCN3CCOCC3)ccc2S1(=O)=O (single isomer, unassigned) [Example 48, (*R)-2,2-Dimethyl-3-(4-methyl-3-((7′-(2-morpholinoethoxy)-1′,1′-dioxido-2,3,5,6-tetrahydrospiro[pyran-4,4′-pyrido[2,3-b][1,4,5]oxathiazepin]-2′(3′H)-yl)methyl)phenyl)-3-(8-methyl-3-trifluoromethyl)-[1,2,4]triazolo[4,3-a]pyridine-7-yl)propanoic Acid] | 6270 nM |
| < 1 nM | Cc1ccc([C@@H](c2ccn3c(C(F)(F)F)nnc3c2C)C(C)(C)C(=O)O)cc1CN1CC2(CCOCC2)Oc2nc(OCCCO)ccc2S1(=O)=O (single isomer, unassigned) [Example 50, (*S)-3-(3-((7′-(3-Hydroxypropoxy)-1′,1′-dioxido-2,3,5,6-tetrahydrospiro[pyran-4,4′-pyrido[2,3-b][1,4,5]oxathiazepin]-2′(3′H)-yl)methyl)-4-methylphenyl-2,2′-dimethyl-3-(8-methy-3-trifluoromethyl)-[1,2,4]triazolo[4,3-a]pyridine-7-yl)propanoic Acid] | 52 nM |
| 0.97 nM | Cc1ccc([C@H](c2ccn3c(C(F)(F)F)nnc3c2C)C(C)(C)C(=O)O)cc1CN1CC2(CCOCC2)Oc2nc(OCCCO)ccc2S1(=O)=O (single isomer, unassigned) [Example 51, (*R) 3-(3-((7′-(3-Hydroxypropoxy)-1′,1′-dioxido-2,3,5,6-tetrahydrospiro[pyran-4,4′-pyrido[2,3-b][1,4,5]oxathiazepin]-2′(3′H)-yl)methyl)-4-methylphenyl-2,2′-dimethyl-3-(8-methyl-3-trifluoromethyl)-[1,2,4]triazolo[4,3-a]pyridine-7-yl)propanoic Acid] | 646 nM |
| < 1 nM | Cc1ccc([C@@H](c2ccn3c(C(F)F)nnc3c2C)C(C)(C)C(=O)O)cc1CN1CC2(CCOCC2)Oc2ncccc2S1(=O)=O (single isomer, unassigned) [Example 53, (*S)-3-(3-(Difluoromethyl)-8-methyl-[1,2,4]triazolo[4,3-a]pyridin-7-yl)-3-(3-((1′,1′-dioxido-2,3,5,6-tetrahydrospiro[pyran-4,4′-pyrido[2,3-b][1,4,5]oxathiazepin]-2′(3′H)-yl)methyl)-4-methylphenyl)-2,2-dimethylpropanoic Acid] | 3.9 nM |
| 1790 nM | Cc1ccc([C@H](c2ccn3c(C(F)F)nnc3c2C)C(C)(C)C(=O)O)cc1CN1CC2(CCOCC2)Oc2ncccc2S1(=O)=O (single isomer, unassigned) [Example 54, (*R)-3-(3-(Difluoromethyl)-8-methyl-[1,2,4]triazolo[4,3-a]pyridin-7-yl)-3-(3-((1′,1′-dioxido-2,3,5,6-tetrahydrospiro[pyran-4,4′-pyrido[2,3-b][1,4,5]oxathiazepin]-2′(3′H)-yl)methyl)-4-methylphenyl)-2,2-dimethylpropanoic Acid] | 956 nM |
| < 1 nM | Cc1cnc([C@@H](c2ccn3c(C(F)(F)F)nnc3c2C)C(C)(C)C(=O)O)cc1CN1CC2(CCOCC2)Oc2ncccc2S1(=O)=O (single isomer, unassigned) [Example 56, (*S)-3-(4-((1′,1′-Dioxido-2,3,5,6-tetrahydrospiro[pyran-4,4′-pyrido[2,3-b][1,4,5]oxathiazepin]-2′(3′H)-yl)methyl)-5-methylpyridin-2-yl)-2,2-dimethyl-3-(8-methyl-3-(trifluoromethyl)-[1,2,4]triazolo[4,3-a]pyridin-7-yl)propanoic Acid] | 48 nM |
| 5670 nM | Cc1cnc([C@H](c2ccn3c(C(F)(F)F)nnc3c2C)C(C)(C)C(=O)O)cc1CN1CC2(CCOCC2)Oc2ncccc2S1(=O)=O (single isomer, unassigned) [Example 57, (*R)-3-(4-((1′,1′-Dioxido-2,3,5,6-tetrahydrospiro[pyran-4,4′-pyrido[2,3-b][1,4,5]oxathiazepin]-2′(3′H)-yl)methyl)-5-methylpyridin-2-yl)-2,2-dimethyl-3-(8-methyl-3-(trifluoromethyl)-[1,2,4]triazolo[4,3-a]pyridin-7-yl)propanoic Acid] | 6660 nM |
| 1.2 nM | CCn1nnc2c(C)c([C@@H](c3cnc(C)c(CN4CC5(CCOCC5)Oc5ncccc5S4(=O)=O)c3)C(C)(C)C(=O)O)ccc21 (single isomer, unassigned) [Example 59, (*S)-3-(5-((1′,1′-Dioxido-2,3,5,6-tetrahydrospiro[pyran-4,4′-pyrido[2,3-b][1,4,5]oxathiazepin]-2′(3′H)-yl)methyl)-6-methylpyridin-3-yl)-3-(1-ethyl-4-methyl-1H-benzo[d][1,2,3]triazol-5-yl)-2,2-dimethylpropanoic Acid] | 116 nM |
| 41200 nM | CCn1nnc2c(C)c([C@H](c3cnc(C)c(CN4CC5(CCOCC5)Oc5ncccc5S4(=O)=O)c3)C(C)(C)C(=O)O)ccc21 (single isomer, unassigned) [Example 60, (*R)-3-(5-((1′,1′-Dioxido-2,3,5,6-tetrahydrospiro[pyran-4,4′-pyrido[2,3-b][1,4,5]oxathiazepin]-2′(3′H)-yl)methyl)-6-methylpyridin-3-yl)-3-(1-ethyl-4-methyl-1H-benzo[d][1,2,3]triazol-5-yl)-2,2-dimethylpropanoic Acid] | 12300 nM |
| < 1 nM | CCn1nnc2c(C)c([C@@H](c3cnc(C)c(CN4CC5(CCOCC5)Oc5ncc(C)cc5S4(=O)=O)c3)C(C)(C)C(=O)O)ccc21 (single isomer, unassigned) [Example 62, (*S)-3-(1-Ethyl-4-methyl-1H-benzo[d][1,2,3]triazol-5-yl)-2,2-dimethyl-3-(6-methyl-5-((8′-methyl-1′,1′-dioxido-2,3,5,6-tetrahydrospiro[pyran-4,4′-pyrido[2,3-b][1,4,5]oxathiazepin]-2′(3′H)-yl)methyl)pyridin-3-yl)propanoic Acid] | 19.2 nM |
| 14500 nM | CCn1nnc2c(C)c([C@H](c3cnc(C)c(CN4CC5(CCOCC5)Oc5ncc(C)cc5S4(=O)=O)c3)C(C)(C)C(=O)O)ccc21 (single isomer, unassigned) [Example 63, (*R)-3-(1-Ethyl-4-methyl-1H-benzo[d][1,2,3]triazol-5-yl)-2,2-dimethyl-3-(6-methyl-5-((8′-methyl-1′,1′-dioxido-2,3,5,6-tetrahydrospiro[pyran-4,4′-pyrido[2,3-b][1,4,5]oxathiazepin]-2′(3′H)-yl)methyl)pyridin-3-yl)propanoic Acid] | 3280 nM |
| < 1 nM | Cc1cnc2c(c1)S(=O)(=O)N(Cc1cc([C@@H](CC(=O)O)c3ccn4c(C(F)(F)F)nnc4c3C)ccc1C)CC1(CC1)O2 (single isomer, unassigned) [Example 64, (*R)-3-(4-methyl-3-((8′-methyl-1′,1′-dioxidospiro[cyclopropane-1,4′-pyrido[2,3-b][1,4,5]oxathiazepin]-2′(3′H)-yl)methyl)phenyl)-3-(8-methyl-3-(trifluoromethyl)-[1,2,4]triazolo[4,3-a]pyridin-7-yl)propanoic Acid] | 304 nM |
